According to patent US20260125382A1, “COMPOUNDS FOR INHIBITING OR DEGRADING CDK2 AND/OR CDK9 AND MEDICINAL USE THEREOF” (KOREA RESEARCH INSTITUTE OF CHEMICAL TECHNOLOGY, priority 2022, published 2026):

Columns and labels:
CDK2 = target: T1, CDK2 (Homo sapiens, UniProt P24941); test: CDK protein degradation activity (Western blotting), CDK2; format: cell-based; details: MDA-MB-231 cells, 16 hours, Western blot
T1 construct: endogenous in cells; host or cells: MDA-MB-231
Method in brief: (§1)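 Protein levels were read by Western blot densitometry, tubulin serving as loading reference. Beforehand, MDA-MB-231 cells had been exposed for 16 hours to 100 nM, 1 μM or 10 μM compound, DMSO as control.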

CDK9 = target: T2, CDK9 (Homo sapiens, UniProt P50750); test: CDK protein degradation activity (Western blotting), CDK9; format: cell-based; details: MDA-MB-231 cells, 16 hours, Western blot
T2 construct: endogenous in cells; host or cells: MDA-MB-231
T2 sequence (P50750 whole entry): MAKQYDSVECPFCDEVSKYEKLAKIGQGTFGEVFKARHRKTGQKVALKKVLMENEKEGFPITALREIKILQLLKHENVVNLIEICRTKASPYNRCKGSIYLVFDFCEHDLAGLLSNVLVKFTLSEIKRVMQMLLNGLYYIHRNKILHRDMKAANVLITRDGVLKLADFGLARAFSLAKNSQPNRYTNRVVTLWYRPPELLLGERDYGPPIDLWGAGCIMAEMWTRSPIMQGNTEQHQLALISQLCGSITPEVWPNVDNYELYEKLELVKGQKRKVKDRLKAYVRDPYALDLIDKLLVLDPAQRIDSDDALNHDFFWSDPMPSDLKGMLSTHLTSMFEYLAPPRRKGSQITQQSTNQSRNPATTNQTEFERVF
Method in brief: as §1

Row | Structure (SMILES) | Enzyme degradation CDK2 (% remaining) @ 0.1 μM (CDK2) | Enzyme degradation CDK2 (% remaining) @ 1 μM (CDK2) | Enzyme degradation CDK2 (% remaining) @ 10 μM (CDK2) | Enzyme degradation CDK9 (% remaining) @ 0.1 μM (CDK9) | Enzyme degradation CDK9 (% remaining) @ 1 μM (CDK9) | Enzyme degradation CDK9 (% remaining) @ 10 μM (CDK9)
1 | O=C1CC[C@H](N2C(=O)c3cc(F)c(N4CCC(C(=O)N5CCC(CN6CCN(c7ccc(Nc8ncnc9c8ncn9C8CC(NC(=O)c9cccc(F)n9)C8)cc7)CC6)CC5)CC4)cc3C2=O)C(=O)N1 (stereo partly drawn) [Compound 468, N-((1s,3s)-3-(6-((4-(4-((1-(1-(2-(2,6-dioxopiperidin-3-yl)-6-fluoro-1,3-dioxoisoindolin-5-yl)piperidin-4-carbonyl)piperidin-4-yl)methyl)piperazin-1-yl)phenyl)amino)-9H-purin-9-yl)cyclobutyl)-6-fluoropicolinamide] | 50% | 40% | 40% | 0/0/0% | 0/0/0% | 0/0/0%
2 | O=C1CC[C@H](N2C(=O)c3ccc(OCC(=O)N4CCC(CN5CCN(c6ccc(Nc7ncnc8c7ncn8C7CC(NC(=O)Cc8ccccc8)C7)cc6)CC5)CC4)cc3C2=O)C(=O)N1 (stereo partly drawn) [Compound 175, N-((1s,3s)-3-(6-((4-(4-((1-(2-((2-(2,6-dioxopiperidin-3-yl)-1,3-dioxoisoindolin-5-yl)oxy)acetyl)piperidin-4-yl)methyl)piperazin-1-yl)phenyl)amino)-9H-purin-9-yl)cyclobutyl)-2-phenylacetamide] | 100% | 80% | 30% | 80% | 30% | 0%
3 | Cc1cccc(C(=O)N[C@H]2C[C@@H](n3cnc4c(Nc5ccc(N6CCN(C(=O)CNc7cccc8c7C(=O)N([C@H]7CCC(=O)NC7=O)C8=O)CC6)cc5)ncnc43)C2)n1 [Compound 87, N-((1s,3s)-3-(6-((4-(4-((2-(2,6-dioxopiperidin-3-yl)-1,3-dioxoisoindolin-4-yl)glycyl)piperazin-1-yl)phenyl)amino)-9H-purin-9-yl)cyclobutyl)-6-methylpicolinamide] | 90% | 70% | 50% | 50% | 50% | 40%
4 | O=C1CC[C@H](N2C(=O)C=C(Nc3cccc(CC(=O)N4CCC(CC(=O)N5CCN(c6ccc(Nc7ncnc8c7ncn8[C@H]7C[C@@H](NC(=O)Cc8ccccc8)C7)cc6)CC5)CC4)c3)C2=O)C(=O)N1 [Compound 196, N-((1s,3s)-3-(6-((4-(4-(2-(1-(2-(3-((1-(2,6-dioxopiperidin-3-yl)-2,5-dioxo-2,5-dihydro-1H-pyrrol-3-yl)amino)phenyl)acetyl)piperidin-4-yl)acetyl)piperazin-1-yl)phenyl)amino)-9H-purin-9-yl)cyclobutyl)-2-phenylacetamide] | 80% | 100% | 100% | 30% | 40% | 40%
5 | O=C1CC[C@H](N2C(=O)C=C(N3CCC(C(=O)N4CCC(CC(=O)N5CCN(c6ccc(Nc7ncnc8c7ncn8[C@H]7C[C@@H](NC(=O)Cc8ccccc8)C7)cc6)CC5)CC4)CC3)C2=O)C(=O)N1 [Compound 197, N-((1s,3s)-3-(6-((4-(4-(2-(1-(1-(1-(2,6-dioxopiperidin-3-yl)-2,5-dioxo-2,5-dihydro-1H-pyrrol-3-yl)piperidin-4-carbonyl)piperidin-4-yl)acetyl)piperazin-1-yl)phenyl)amino)-9H-purin-9-yl)cyclobutyl)-2-phenylacetamide] | 30/30/30% | 30/30/30% | 30/30/30% | 10% | 10% | 0%
6 | COc1ccc(C(=O)N2CCC(CC(=O)N3CCN(c4ccc(Nc5ncnc6c5ncn6[C@H]5C[C@@H](NC(=O)Cc6ccccc6)C5)cc4)CC3)CC2)cc1N1CCC(=O)NC1=O [Compound 194, N-((1s,3s)-3-(6-((4-(4-(2-(1-(3-(2,4-dioxotetrahydropyrimidin-1(2H)-yl)-4-methoxybenzoyl)piperidin-4-yl)acetyl)piperazin-1-yl)phenyl)amino)-9H-purin-9-yl)cyclobutyl)-2-phenylacetamide] | 50% | 10% | 10% | 70% | 50% | 40%
7 | O=C1CC[C@H](N2C(=O)c3cc(F)c(N4CCN(CCCC5CCN(c6ccc(Nc7ncnc8c7ncn8[C@H]7C[C@@H](NC(=O)Cc8ccccc8)C7)cc6)CC5)CC4)cc3C2=O)C(=O)N1 [Compound 348, N-((1s,3s)-3-(6-((4-(4-(3-(4-(2-(2,6-dioxopiperidin-3-yl)-6-fluoro-1,3-dioxoisoindolin-5-yl)piperazin-1-yl)propyl)piperidin-1-yl)phenyl)amino)-9H-purin-9-yl)cyclobutyl)-2-phenylacetamide] | 30% | 10% | 10% | 80% | 20% | 0%
8 | O=C1CC[C@H](N2C(=O)c3ccc(N4CC(C(=O)N5CCC6(CC5)CC(N5CCN(c7ccc(Nc8ncnc9c8ncn9C8CC(NC(=O)c9c(Cl)cccc9Cl)C8)cc7)CC5)C6)C4)cc3C2=O)C(=O)N1 (stereo partly drawn) [Compound 383, 2,6-dichloro-N-((1s,3s)-3-(6-((4-(4-(7-(1-(2-(2,6-dioxopiperidin-3-yl)-1,3-dioxoisoindolin-5-yl)azetidin-3-carbonyl)-7-azaspiro[3.5]nonan-2-yl)piperazin-1-yl)phenyl)amino)-9H-purin-9-yl)cyclobutyl)benzamide] | 40/40/40% | 40/40/40% | 40/40/40% | 0/0/0% | 0/0/0% | 0/0/0%
9 | O=C1CC[C@H](n2nnc3ccc(N4CCN(CC5CCN(c6ccc(Nc7ncnc8c7ncn8C7CC(NC(=O)Cc8ccccc8)C7)cc6)CC5)CC4)cc3c2=O)C(=O)N1 (stereo partly drawn) [Compound 320, N-((1s,3s)-3-(6-((4-(4-((4-(3-(2,6-dioxopiperidin-3-yl)-4-oxo-3,4-dihydrobenzo[d][1,2,3]triazin-6-yl)piperazin-1-yl)methyl)piperidin-1-yl)phenyl)amino)-9H-purin-9-yl)cyclobutyl)-2-phenylacetamide] | 20% | 0% | 0% | 80% | 10% | 10%
10 | O=C1CC[C@H](n2nnc3ccc(N4CCC(CN5CCN(c6ccc(Nc7ncnc8c7ncn8C7CC(NC(=O)c8c(Cl)cccc8Cl)C7)cc6)CC5)CC4)cc3c2=O)C(=O)N1 (stereo partly drawn) [Compound 371, 2,6-dichloro-N-((1s,3s)-3-(6-((4-(4-((1-(3-(2,6-dioxopiperidin-3-yl)-4-oxo-3,4-dihydrobenzo[d][1,2,3]triazin-6-yl)piperidin-4-yl)methyl)piperazin-1-yl)phenyl)amino)-9H-purin-9-yl)cyclobutyl)benzamide] | 0/0/0% | 0/0/0% | 0/0/0% | 0/0/0% | 0/0/0% | 0/0/0%
11 | O=C1CC[C@@H](c2ccc(OCC(=O)N3CCC(OCCN4CCN(c5ccc(Nc6ncnc7c6ncn7C6CC(NC(=O)Cc7ccccc7)C6)cc5)CC4)CC3)cc2)C(=O)N1 (stereo partly drawn) [Compound 250, N-((1s,3s)-3-(6-((4-(4-(2-((1-(2-(4-(2,6-dioxopiperidin-3-yl)phenoxy)acetyl)piperidin-4-yl)oxy)ethyl)piperazin-1-yl)phenyl)amino)-9H-purin-9-yl)cyclobutyl)-2-phenylacetamide] | 60% | 40% | 30% | 40% | 10% | 0%
